Drawing on a melting point compilation (Tetko et al.; mined from patent text by program, amines drawn as free bases though some values may be those of a salt), this text covers melting point for 66 molecules.

For the molecule `Cc1cccc(-c2cc(C(=O)O)n(C)n2)c1`, the melting point lay in the range of 150 to 153 °C.

Turning to `CC(C)n1c(N2CCN(C)CC2)nc2cc(Cl)c(N)cc21`, the melting point is 192 to 193 °C.

Molecule `CC1(C)C(=O)N(CCCl)C(=O)N1CCCl` came in with a melting point of 77 to 79 °C.

Turning to `O=C(CBr)Nc1c(Cl)cccc1C(=O)O`, the melting point was 173 to 175 °C.

Regarding `COc1ccc(C(c2ccc(OC)c(O)c2)n2cncn2)cc1O`, the melting point lay within 218 to 219 °C.

`CCOC(=O)c1sc(Cl)nc1-c1ccccc1` registered a melting point of 56 to 57 °C.

`COc1ccc(-c2nc(CN)no2)cc1` yielded a melting point of 66 to 68 °C.

`CN1CC(C)(C)c2ccc(NC(=O)/C=C/c3ccc(C(C)(C)C)cc3)cc21` showed a melting point of 90 to 101 °C.

`CCOC(=O)NC(=O)C(c1ccccc1)c1ccccc1`: the melting point was 133 °C.

Consider `Nc1cccc(Oc2ccc(Oc3cccc(N)c3)cc2)c1`, for which the melting point fell in the range of 98 to 99 °C.

For `Cc1ccc(Sc2cncc3sc(C(N)=O)cc23)c(C)c1`, the melting point was in the range of 193 to 195 °C.

On to `CC1(C)OCC(=O)Nc2ccc(-c3cc(F)cc(C#N)c3)cc21`, for which the melting point lay in the range of 238 to 239 °C.

On to `CC#CCOc1ccc(S(=O)(=O)NC2(C(=O)O)CCCC2)cc1`, for which the melting point was 108 to 110 °C.

For the molecule `COCCc1nc2c(N)nc3ccccc3c2n1CC1(O)CCC1`, the melting point lay within 169 to 171 °C.

On to `COc1cccc(-c2nc3n(n2)CCc2cc(OC)ccc2-3)c1`, for which the melting point fell in the range of 101 to 103 °C.

With `O=C(O)c1c(Cc2cc3c(cc2Cl)OCO3)c(-c2ccco2)nn1CC1CCCCC1`, the melting point was 248 °C.

Turning to `OC(CCSc1cccc2ccccc12)CCc1cccnc1` (stereo unspecified), the melting point was 58 to 59 °C.

In turn, `CCC(=O)N(C)N1CC(C)(C)C(=O)c2ccc(S(=O)(=O)c3ccccc3)cc21` came in with a melting point of 153 to 155 °C.

As to `N=C(Nc1ccc(Cl)cc1)Nc1ncccc1OCc1c(Cl)cccc1Cl`, the melting point was 192 to 195 °C.

Molecule `CN1C(=O)NCc2cccnc21` gave a melting point of 140 to 143 °C.

For the molecule `COc1cc(C(C)=O)ccc1OCCCN1C2CCC1CC(c1nsc3cc(F)ccc13)C2` (stereo unspecified), the melting point was 118 to 119 °C.

Regarding `CC(C)=C1C(=O)N(c2cc(F)c(C#N)cc2F)C(=O)C1=C(C)C`, the melting point stood at 144 °C.

The molecule `CN1CC[C@@H](c2c(O)cc(O)c3c(=O)cc(-c4ccc(N)cc4)oc23)[C@@H]1CO` yielded a melting point of 172 to 174 °C.

In turn, `CCN(CC)c1ccc(-c2nnc(Nc3ccc(Br)c(Cl)c3)s2)cc1` came in with a melting point of 232 to 233 °C.

`CCOC(=O)c1cc(NCc2ccccc2)c(Sc2ccccc2C)c(S(N)(=O)=O)c1`: the melting point fell in the range of 166 to 167 °C.

In turn, `O=c1ccn(-c2cccc(C(F)(F)F)c2)nc1-c1ccn[nH]1` displayed a melting point of 192 to 194 °C.

`O=C(NC1CCCCC1)NS(=O)(=O)c1ccc(CCNC(=O)N2CCc3ccccc3C2=O)cc1` had a melting point of 197 to 198 °C.

On to `COC1(c2ccc(Sc3ccc(C(=O)c4c(F)c(F)c(F)c(F)c4F)cc3)s2)CCOCC1`, for which the melting point lay within 93 to 94 °C.

Turning to `CCN1N=C(c2ccc3c(c2)CCC(=O)N3C)C(C)CC1=O` (stereo unspecified), the melting point lay in the range of 170 to 172 °C.

Regarding `CC(O)c1cc2c(OCC(O)CN3CCC(c4ccc5ccccc5c4)CC3)cccc2o1` (stereo unspecified), the melting point lay in the range of 143 to 144 °C.

`O=Cc1c(Br)ccc2cc3c(cc12)OCO3`: the melting point is 165 to 166 °C.

With `CC[C@@H]1C(=O)N(c2ccc(C#N)c(Cl)c2)[C@@H](C)[C@H]1O`, the melting point was in the range of 109 to 110 °C.

In turn, `COC(=O)c1cccc([N+](=O)[O-])c1I` came in with a melting point of 64 to 64.5 °C.

`CC12CCC(C1)C(C)(C)C2(S)CCN` (stereo unspecified) returned a melting point of 42 to 43 °C.

Turning to `CC1(C2CCC3C4CCC5CC6OC6CC5(C)C4C(=O)CC32C)OCCO1` (stereo unspecified), the melting point is 159 to 160 °C.

Molecule `Cc1c(C)c2c(c(C)c1NC(=O)CC(C)(C)C)C(c1ccc(C(C)C)c(OCCO)c1)CO2` (stereo unspecified) yielded a melting point of 155 to 156 °C.

As for `COc1cc2c(cc1OC)C(=CC(N)=O)NCC2`, the melting point was 156 to 158 °C.

As to `CN1CCN(c2ccc3c(c2)NC(=O)C(C)(c2ccc([N+](=O)[O-])cc2)C3=O)CC1` (stereo unspecified), the melting point was in the range of 150 to 151 °C.

In turn, `Cc1cc(-n2cnnc2)ccc1[N+](=O)[O-]` returned a melting point of 208 to 210 °C.

With `CCCN1CCC(c2ccc(C(=O)NC3(C(=O)NCC#N)CCCCC3)cc2)CC1`, the melting point fell in the range of 198 to 200 °C.

On to `CCOC(=O)Cn1c(=O)c(=O)[nH]c2cc(C(F)(F)F)c(-n3c(C)ccc3C)cc21`, for which the melting point lay in the range of 262 to 263 °C.

The molecule `CNc1cc(NC)nc(NS(=O)(=O)c2ccc(N)cc2)n1` had a melting point of 262 to 263 °C.

`Oc1cccc(-c2noc3ncccc23)c1` yielded a melting point of 175 to 178 °C.

As for `O=C(c1cc(=O)c2cc(O)ccc2[nH]1)N1CCC(OCc2ccccc2)CC1`, the melting point came to 103 °C.

In turn, `CCCCCCCCCCCCCCCCCCOc1ccc2c(c1)C(=O)c1ccc(OCCCCCCCCCCCCCCCCCC)cc1C2=O` displayed a melting point of 112 to 122 °C.

In the case of `Cc1cc2c(c3c1NC(=O)CC3)O[C@@H](CN)[C@H]2C` (racemic), the melting point was over 300 °C.

Take `CCC12CCC3C4CCC(=O)C=C4C(Cl)CC3C1C(OC(C)=O)CC2=O` (stereo unspecified): the melting point was found to be 115 °C.

As to `CCOC(=O)Cn1ncc(-c2ccc(F)cc2)c1-c1ccccc1`, the melting point was in the range of 86 to 87 °C.

The molecule `CC(=O)OCc1nc2c(NCc3c(C)cccc3C)cc(Br)cc2n1C` yielded a melting point of 188 to 190 °C.

The molecule `COC(=O)c1nn(Cc2ccccc2)c2c1CCc1cc(OCc3cncnc3)ccc1-2` registered a melting point of 202 to 203 °C.

Molecule `O=C(Cl)c1ccc(NC(=O)c2ccccc2-c2ccccc2)cc1` had a melting point of 118 to 120 °C.

`CC(C)(C)OC(=O)NC(Cc1ccc(OCc2ccccc2)cc1)CN1CCOCC1` (stereo unspecified) returned a melting point of 98 to 99 °C.

Turning to `NC(=O)C(=O)Nc1nc(-c2cc(-c3ccccc3)on2)cs1`, the melting point is 246 to 247 °C.

Consider `CON(C)C(=O)Nc1cccc(OC(C)C(N)=S)c1` (stereo unspecified), for which the melting point is 95 to 96 °C.

Molecule `Cc1cc(Cl)ccc1-c1cc(Cl)cc2c1NC(CN)CO2` (stereo unspecified) yielded a melting point of 102 °C.

In turn, `CCC12CCC3=C(CCc4cc(O)ccc43)C1CCC2=O` (stereo unspecified) returned a melting point of 235 to 239 °C.

The molecule `CC(C)(C)OC(=O)N1CCC(Oc2ccc(C3=NNC(=O)CC3c3ccccn3)cc2)CC1` (stereo unspecified) yielded a melting point of 213 to 214 °C.

`CCOC(=O)C1=C(C)NC(=S)N(C(=O)OCC)C1c1ccccc1OCc1ccccc1` (stereo unspecified) displayed a melting point of 153 to 155 °C.

Take `CCOC(=O)c1cnc2sc(C(=O)Cc3ccccc3)c(C)c2c1O`: the melting point lay within 208 to 214 °C.

In turn, `CC(=O)NC1CCC(N2CCNC2=O)CC1` (stereo unspecified) showed a melting point of 211 to 230 °C.

Turning to `COC(=O)c1cc(N)cc(C=NO)c1`, the melting point was 160 to 162 °C.

`CCOC(=O)c1c(O)nc2c(C(F)(F)F)cccc2c1O`: the melting point is 190 °C.

The molecule `NC(C(=O)O)C(O)CC(=O)O` (stereo unspecified) yielded a melting point of 137 to 138 °C.

Consider `CC1(C)C=Cc2cc(OCc3ccccc3)c(OCc3ccccc3)cc2O1`, for which the melting point was 50 to 51 °C.

Take `COCCN(C)S(=O)(=O)c1cc(-n2c(=O)cc(C(F)(F)F)n(C)c2=O)ccc1Cl`: the melting point lay in the range of 108 to 110 °C.

The molecule `Cc1nn2ccccc2c1C(=O)C1=CNCCC1` displayed a melting point of 207 to 208 °C.
